{"source": "patent US12295972B2", "about": "“Methods using freeze-dried platelet derivative compositions for restoring hemostasis in a subject” (Cellphire, Inc., priority 2021, dated 2025)", "key": {"[1]": {"system": "platelets in platelet-rich plasma (PRP)", "test": "Transmission light aggregometry of platelets in PRP with antiplatelet agents", "format": "cell-based, human", "experimental": "Plasma samples with platelet or FDPDs or combination of both are loaded into cuvettes and placed into the aggregometry chambers. The chambers warm the sample and provide constant stirring. The initiation of aggregation can be done by multiple types of […] agents not limited to thrombin, ADP, collagen and any agent know to stimulate platelet aggregation. […] The instrument begins the assay by first recording the light transmission previous to stimulation for 2 minutes. The stimulant of interest is then introduced by the technician and the change in light transmission is recorded overtime. The increase in light transmission corresponds to increase in platelet aggregation."}, "[2]": {"system": "whole blood", "test": "T-TAS PL chip (collagen only) thrombus formation, whole blood", "format": "cell-based, human", "settings": "100 and 500 μM aspirin", "source_text": "Platelets will aggregate with collagen and arachidonic acid stimulation. […] The PL chip system on the T-TAS® was used to emulate in vitro platelet binding and aggregation due to the exposure of collagen in the vasculature under shear conditions.\nPL chips are run similarly to AR chips but this chip is only coated with collagen alone."}, "[3]": {"settings": "same 500 mg dose orally; cited from earlier work"}, "[4]": {"system": "thrombin generation", "test": "Thrombin generation assay (TGA)", "format": "biochemical, human", "settings": "PPP from patients taking baby aspirin daily; absence of FDPDs"}, "[5]": {"system": "platelet rich plasma", "test": "T-TAS AR chip (collagen and tissue factor) occlusion, platelet rich plasma", "format": "cell-based, human"}, "[6]": {"system": "platelet rich plasma", "test": "T-TAS AR chip (collagen and tissue factor) occlusion, platelet rich plasma", "format": "cell-based, human", "settings": "for occlusion time of ADP stimulated PRP: ADP 2 μM, cangrelor 1 μM (n=4) or ticagrelor 500 ng/mL (n=5)", "experimental": "The effect of cangrelor on platelet occlusion under shear was evaluated by T-TAS®.\nEvaluation by T-TAS® using an AR chip. AR chips are characterized by a single channel containing collagen and tissue factor; they can be used to analyze clotting and platelet function."}, "[7]": {"system": "platelet function", "settings": "in vivo; cited from earlier work"}, "[8]": {"system": "whole blood", "test": "T-TAS AR chip occlusion, whole blood", "format": "cell-based, human", "settings": "6 μM eptifibatide", "source_text": "The effect of FDPDs on shortening clotting times while in the presence of eptifibatide was also studied. The ability of FDPDs to recover occlusion times was studied on the T-TAS® system. The T-TAS® system measures occlusion time under shear forces with collagen and thromboplastin stimulation. The whole blood profile of occlusion and AUC on the AR T-TAS® chip lengthened and decreased, respectively, with eptifibatide. Eptifibatide extended the occlusion time of whole blood on the T-TAS® AR Chip in a dose-dependent manner. In this experiment, whole blood occluded at 8 minutes, and the occlusion time was extended to 16 minutes with 6 μM eptifibatide (FIG. 9). FDPDs reversed the inhibitory effect of eptifibatide on thrombus formation. Eptifibatide inhibition of whole blood occlusion on the T-TAS® AR Chip was reversed by the addition of FDPDs at approximately 200,000/μL (N=3). When FDPDs (approximately 200 k/μL) were added to the sample of whole blood inhibited with eptifibatide, the time to occlusion decreased to ‘normal’ at 9 minutes (FIG. 10).\nEvaluation by T-TAS® using an AR chip. […]\nOcclusion time was measured on the Total […] formation Analysis System (T-TAS®) 01 using AR chips (Collagen and Tissue FactorF stimulant). […] FDPDS were rehydrated, counted (Beckman Coulter AcT Diff 2 Cell Counter), and added to whole blood at the indicated final concentration. […]"}, "[9]": {"system": "pooled normal plasma", "test": "Activated clotting time (ACT) in pooled normal plasma with heparin and protamine", "format": "biochemical, human", "settings": "heparin titration", "experimental": "This experiment assessed how clinical proportions of Heparin and Protamine affect FDPD function. FDPDs were prepared according to the procedure in Example 15. An Activating Clotting Time (ACT) assay was performed to measure time to clot and TGA was performed to measure thrombin generation. An initial Heparin titration run was performed using ACT to find the minimum Heparin dose needed to reach abnormal clot time.\nActivated clotting time was measured using pooled normal plasma with heparin (H) and protamine (P) as labeled on the x-axis; ½ P, P, and 3/2 P represent protamine doses of 4, 8, and 12 μg/ml, respectively. FDPDs, (referred to as “Tsomes” in FIG. 40) were added at 10, 25 or 50 K/μl. […] “K” in the legend stands for 10^3 FDPDS. All samples were run in duplicate. N=2. The experiment was repeated on separate days to improve statistical relevance."}, "[10]": {"settings": "cangrelor 1 μM combined with ADP 10 μM"}}, "note": "“Also recorded” adds a separate entry of the source. Where a SMILES comes first, the peptide text is derived from it. Bridges are numbered along the chain shown (N, C = ends). [ ]: non-standard residue; d: D form. hArg = N=C(N)NCCCC[C@H](N)C(=O)O; Mpa = O=C(O)CCS"}
{"molecule": "CC(=O)Oc1ccccc1C(=O)O", "note": "[aspirin, acetylsalicylic acid]", "values": [{"measurement": "arachidonic acid induced platelet aggregation in PRP", "setting": "[1]; AA 500 ug/mL, aspirin 100-400 μM", "value": "eliminated arachidonic acid induced platelet aggregation entirely"}, {"measurement": "collagen stimulated platelet aggregation in PRP", "setting": "[1]; collagen 10 ug/mL, aspirin 100-400 μM", "value": "partially inhibited"}, {"measurement": "platelet binding and aggregation on collagen under shear", "setting": "[2]", "value": "largely limited"}, {"measurement": "peak concentration", "setting": "[3]", "value": 44, "unit": "µM"}, {"measurement": "peak thrombin", "setting": "[4]", "value": "about 45 nM"}, {"measurement": "occlusion time of PRP", "setting": "[5]; PRP 30K/μL", "value": "> 30", "unit": "min"}, {"measurement": "occlusion of PRP taken from an aspirin patient", "setting": "[5]; ex vivo, subject on 81 mg/day of aspirin", "value": "failed to occlude"}]}
{"molecule": "CSCCNc1nc(SCCC(F)(F)F)nc2c1ncn2[C@@H]1O[C@H](COP(=O)(O)OP(=O)(O)C(Cl)(Cl)P(=O)(O)O)[C@@H](O)[C@H]1O", "note": "[cangrelor]", "values": [{"measurement": "ADP-induced platelet aggregation in PRP", "setting": "[1]; 10 μM ADP, cangrelor 0.5 μM-3.5 μM", "value": "complete inhibition"}, {"measurement": "occlusion time of PRP", "setting": "[6]; 100 ng/mL cangrelor and ADP", "value": 26, "unit": "min"}, {"measurement": "occlusion time of ADP stimulated PRP", "setting": "[6]", "value": "28.0 ± 3.0", "unit": "min"}, {"measurement": "area under the curve (AUC) of PRP", "setting": "[6]; [10]", "value": "dropped close to zero"}, {"measurement": "platelet adhesion and occlusion of PRP", "setting": "[6]; [10]", "value": "essentially eliminated; also recorded: inhibited occlusion essentially completely"}, {"measurement": "area under the curve (AUC) of PRP", "setting": "[6]; cangrelor alone 1 μM", "value": "little effect"}, {"measurement": "occlusion / occlusion time of PRP", "setting": "[6]; cangrelor alone 1 μM", "value": "did not exhibit inhibition; also recorded: little effect"}]}
{"molecule": "COC(=O)[C@H](c1ccccc1Cl)N1CCc2sccc2C1", "note": "[clopidogrel]", "values": [{"measurement": "time until platelet function is returned after stopping infusion", "setting": "[7]", "value": "approximately 1 hour"}]}
{"molecule": "N=C(N)NCCCC[C@@H]1NC(=O)CCSSC[C@@H](C(N)=O)NC(=O)[C@@H]2CCCN2C(=O)[C@H](Cc2c[nH]c3ccccc23)NC(=O)[C@H](CC(=O)O)NC(=O)CNC1=O", "note": "[eptifibatide] ([Mpa][hArg]GDWPC-NH2; disulfide 1-7)", "values": [{"measurement": "collagen-induced platelet aggregation in PRP", "setting": "[1]; collagen 10 μg/mL, all eptifibatide concentrations tested", "value": "completely inhibited"}, {"measurement": "occlusion time of PRP", "setting": "[5]; 9 μM eptifibatide", "value": "over 30 minutes"}, {"measurement": "occlusion time of whole blood", "setting": "[8]", "value": 16, "unit": "min"}, {"measurement": "time for bleeding time to return to normal after drug stoppage", "setting": "[7]", "value": "≤ 1", "unit": "h"}]}
{"molecule": "CC(C)Cc1ccc(C(C)C(=O)O)cc1", "note": "(centres unmarked) [ibuprofen]", "values": [{"measurement": "aggregation in response to arachidonic acid", "setting": "[1]; PRP from subject on 800 mg ibuprofen", "value": "lack of aggregation"}, {"measurement": "occlusion of PRP from ibuprofen patient", "setting": "[5]; addition of ADP", "value": "abolished occlusion"}, {"measurement": "occlusion of PRP from ibuprofen patient", "setting": "[5]; subject on 800 mg ibuprofen", "value": "demonstrated occlusion"}]}
{"molecule": "CCCSc1nc(N[C@@H]2C[C@H]2c2ccc(F)c(F)c2)c2nnn([C@@H]3C[C@H](OCCO)[C@@H](O)[C@H]3O)c2n1", "note": "[ticagrelor]", "values": [{"measurement": "occlusion time of ADP stimulated PRP", "setting": "[6]", "value": "28.0 ± 3.0", "unit": "min"}, {"measurement": "time until platelet function can return after the last dosage", "setting": "[7]", "value": "approximately 72 hours"}]}
{"molecule": "CCCCS(=O)(=O)N[C@@H](Cc1ccc(OCCCCC2CCNCC2)cc1)C(=O)O", "note": "[tirofiban]", "values": [{"measurement": "occlusion time of PRP", "setting": "[5]; 100 ng/mL tirofiban", "value": "no occlusion"}]}
{"molecule": "heparin", "values": [{"measurement": "minimum Heparin dose needed to reach abnormal clot formation", "setting": "[9]", "value": 0.8, "unit": "U/mL"}]}
